Test results from patent publication US9988399B2, “Bicyclic compounds as ACC inhibitors and uses thereof” (Gilead Apollo, LLC, priority 2013, dated 2018).

How the values were obtained:
ACC1 = ACC1 isolated from rat, mouse, monkey and human; cited from earlier work
ACC2 [1] = details: ACC2 isolated from rat, mouse, monkey and human; cited from earlier work
ACC2 [2] = molecular target: ACC2 (Homo sapiens, UniProt O00763); assay: in vitro ACC2 inhibition assay (ADP-Glo); type: biochemical; details: 5 nM ACC2, 20 μM ATP, 20 μM acetyl-CoA
Sequence of ACC2 (Homo sapiens, UniProt O00763) (O00763 whole entry, species assumed): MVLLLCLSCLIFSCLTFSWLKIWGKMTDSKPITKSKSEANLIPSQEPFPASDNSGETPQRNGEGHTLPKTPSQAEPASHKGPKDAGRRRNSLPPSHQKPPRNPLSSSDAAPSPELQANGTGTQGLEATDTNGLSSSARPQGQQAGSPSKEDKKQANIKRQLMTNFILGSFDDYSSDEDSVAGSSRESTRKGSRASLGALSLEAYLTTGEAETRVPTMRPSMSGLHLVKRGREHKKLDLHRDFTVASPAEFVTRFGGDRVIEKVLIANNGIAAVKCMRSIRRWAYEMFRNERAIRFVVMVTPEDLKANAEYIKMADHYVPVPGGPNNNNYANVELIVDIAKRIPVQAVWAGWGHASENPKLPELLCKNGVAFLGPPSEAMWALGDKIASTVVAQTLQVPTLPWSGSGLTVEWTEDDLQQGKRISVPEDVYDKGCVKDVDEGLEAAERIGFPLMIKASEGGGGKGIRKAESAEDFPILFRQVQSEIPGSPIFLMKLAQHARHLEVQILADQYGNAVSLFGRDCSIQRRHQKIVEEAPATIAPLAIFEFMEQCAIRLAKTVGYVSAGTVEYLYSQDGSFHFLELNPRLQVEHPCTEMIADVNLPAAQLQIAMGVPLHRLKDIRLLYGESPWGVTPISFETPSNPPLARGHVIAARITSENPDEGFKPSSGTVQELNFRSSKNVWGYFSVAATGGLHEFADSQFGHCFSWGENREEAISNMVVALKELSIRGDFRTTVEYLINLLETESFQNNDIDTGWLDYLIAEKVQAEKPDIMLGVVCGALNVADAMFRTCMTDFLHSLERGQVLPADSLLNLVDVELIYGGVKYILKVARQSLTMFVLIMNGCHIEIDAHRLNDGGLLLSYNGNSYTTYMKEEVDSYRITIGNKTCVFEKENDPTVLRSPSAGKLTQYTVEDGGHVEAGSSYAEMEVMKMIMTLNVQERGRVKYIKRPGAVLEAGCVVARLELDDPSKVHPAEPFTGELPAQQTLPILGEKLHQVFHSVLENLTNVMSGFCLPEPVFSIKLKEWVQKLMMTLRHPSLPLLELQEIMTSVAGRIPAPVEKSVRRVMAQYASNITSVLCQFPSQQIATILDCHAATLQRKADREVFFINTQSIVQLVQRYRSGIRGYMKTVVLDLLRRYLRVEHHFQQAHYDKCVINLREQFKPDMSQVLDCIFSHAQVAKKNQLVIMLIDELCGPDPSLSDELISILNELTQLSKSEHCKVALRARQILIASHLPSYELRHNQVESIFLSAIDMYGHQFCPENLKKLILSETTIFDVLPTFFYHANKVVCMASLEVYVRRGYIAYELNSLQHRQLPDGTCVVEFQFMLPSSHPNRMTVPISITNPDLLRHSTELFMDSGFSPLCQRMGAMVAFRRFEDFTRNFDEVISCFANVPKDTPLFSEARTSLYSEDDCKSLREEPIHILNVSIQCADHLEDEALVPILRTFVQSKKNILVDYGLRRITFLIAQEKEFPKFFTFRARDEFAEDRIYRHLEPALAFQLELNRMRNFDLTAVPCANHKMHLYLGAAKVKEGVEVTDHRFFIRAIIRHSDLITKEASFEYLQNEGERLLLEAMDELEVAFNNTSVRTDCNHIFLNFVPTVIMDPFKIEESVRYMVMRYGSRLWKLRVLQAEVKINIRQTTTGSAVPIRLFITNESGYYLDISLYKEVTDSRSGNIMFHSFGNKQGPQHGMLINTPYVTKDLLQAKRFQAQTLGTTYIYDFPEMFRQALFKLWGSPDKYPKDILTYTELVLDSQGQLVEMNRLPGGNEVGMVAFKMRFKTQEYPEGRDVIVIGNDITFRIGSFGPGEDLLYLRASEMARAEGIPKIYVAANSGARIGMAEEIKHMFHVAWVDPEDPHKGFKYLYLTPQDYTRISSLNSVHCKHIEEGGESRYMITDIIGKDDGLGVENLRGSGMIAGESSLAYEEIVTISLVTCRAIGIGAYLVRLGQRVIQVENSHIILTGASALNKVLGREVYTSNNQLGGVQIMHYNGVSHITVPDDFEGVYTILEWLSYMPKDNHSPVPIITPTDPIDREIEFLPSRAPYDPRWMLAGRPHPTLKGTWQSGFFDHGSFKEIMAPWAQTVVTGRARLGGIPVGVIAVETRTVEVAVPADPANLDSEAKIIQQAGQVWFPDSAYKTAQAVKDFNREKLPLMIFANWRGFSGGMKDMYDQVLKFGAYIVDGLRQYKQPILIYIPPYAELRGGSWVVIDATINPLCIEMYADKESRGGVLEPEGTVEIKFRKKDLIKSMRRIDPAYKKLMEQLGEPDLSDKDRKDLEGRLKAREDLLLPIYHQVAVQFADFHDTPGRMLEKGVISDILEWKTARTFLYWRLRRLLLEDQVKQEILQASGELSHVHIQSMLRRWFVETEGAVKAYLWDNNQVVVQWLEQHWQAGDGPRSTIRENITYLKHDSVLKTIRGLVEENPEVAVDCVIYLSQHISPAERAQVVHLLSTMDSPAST
Description: An exemplary procedure for the in vitro ACC inhibition assay, which can be used to determine the inhibitory action of compounds of the invention toward either ACCT or ACC2, follows. The ADP-Glo™ Kinase Assay kit from Promega is used. The ADP-Glo™ Kinase Assay is a luminescent ADP detection assay to measure enzymatic activity by quantifying the amount of ADP produced during an enzyme reaction. The assay is performed in two steps; first, after the enzyme reaction, an equal volume of ADP-Glo™ Reagent is added to terminate the reaction and deplete the remaining ATP. Second, the Kinase Detection Reagent is added to simultaneously convert ADP to ATP and allow the newly synthesized ATP to be measured using a luciferase/luciferin reaction. Luminescence can be correlated to ADP concentrations by using an ATP-to-ADP conversion curve. The detailed procedure is as follows. 50 μL of the compound being tested (600 uM in DMSO) is added to a 384-well dilution plate. The compound is diluted 1:3 in succession in DMSO for each row for 11 wells. […] is added to 384-well white Optiplate assay plate. 0.5 μL diluted compound solution in each column from step 2 is added to the assay plate, each row containing 2 replicates. For the last 2 rows, add 0.5 μL negative control (DMSO) in one row and 0.5 μL positive control (compound I-97) in the other. The plates are incubated at room temperature for 15 minutes. 5 μL substrate working solution is added to each well to initiate reaction. Final ACC2 reaction concentrations consist of: 5 nM ACC2, 20 μM ATP, 20 μM acetyl-CoA, 12 mM NaHCO3, 0.01% Brij35, 2 mM DTT, 5% DMSO, test compound concentrations: 30 μM, 10 μM, 3.33 μM, 1.11 μM, 0.37 μM, 0.123 μM, 0.0411 μM, 0.0137 μM, 0.00457 μM, 0.00152 μM, and 0.00051 μM. Plates are incubated at room temperature for 60 minutes. 10 μL ADP glo reagent is added. Plates are incubated at room temperature for 40 minutes. 20 μL kinase detection reagent is added. Plates are incubated at room temperature for 40 minutes, then read on a Perkin Elmer EnVision 2104 plate reader for luminescence as Relative Light Units (RLU).
Data for each concentration, as well as the positive and negative controls are averaged, and the standard deviation calculated. Percent inhibition is calculated by the formula: 100×(average negative control−compound)/(average negative control−average positive control). The IC50 for each compound is calculated by fitting the data with a non-linear regression equation: Y=Bottom+(Top-Bottom)/(1+10^((Log IC50−X)*HillSlope)), where X is the log of compound concentration and Y is percent inhibition.

Structure (SMILES)	IC50 (ACC1) [nM]	IC50 (ACC2 [1]) [nM]	IC50 (ACC2 [2]) [nM]
O=C(c1c2ccccc2cc2ccccc12)N1CCC(N2CCC[C@@H](C(=O)N3CCOCC3)C2)CC1 [CP-640186]	~60	~60	–
COc1ccccc1CCc1cn(CC(=O)O)c(=O)c2c(C)c(-c3ncco3)sc12 [Compound I-33, 2-(7-(2-methoxyphenethyl)-3-methyl-2-(oxazol-2-yl)-4-oxothieno[3,2-c]pyridin-5(4H)-yl)acetic acid]	–	–	≤ 1000
COc1ccccc1CCc1cn(CC(N)=O)c(=O)c2c(C)c(-c3ncco3)sc12 [Compound I-34, 2-(7-(2-methoxyphenethyl)-3-methyl-2-(oxazol-2-yl)-4-oxothieno[3,2-c]pyridin-5(4H)-yl)acetamide]	–	–	≤ 1000
COc1ccccc1CCn1c(=O)n(CC(=O)O)c(=O)c2nc(-c3ncco3)sc21 [Compound I-35, 2-(4-(2-methoxyphenethyl)-2-(oxazol-2-yl)-5,7-dioxo-4,5-dihydrothiazolo[5,4-d]pyrimidin-6(7H)-yl)acetic acid]	–	–	5000 to 20000
COc1ccccc1CCn1c(=O)n(CC(=O)O)c(=O)c2c1nc(-c1ncco1)n2C [Compound I-36, 2-(3-(2-methoxyphenethyl)-7-methyl-8-(oxazol-2-yl)-2,6-dioxo-2,3,6,7-tetrahydro-1H-purin-1-yl)acetic acid]	–	–	5000 to 20000
